Results on 3 compounds are retold here after patent US20260083759A1, “Combinations Comprising Psychedelics for the Treatment of Schizophrenia and Other Neuropsychiatric and Neurologic Disorders” (HADASIT MEDICAL RESEARCH SERVICES AND DEVELOPMENT LTD, priority 2022, published 2026).

For assay [1], the system named is ICR mice. In words: MK-801 induced hyperactivity in the open field. Format: in vivo. The conditions noted are these: MK-801 0.1 mg/kg i.p. immediately before open field for one hour (FIG. 3A). The method, then: Hyperactivity induced in rodents by the NMDA receptor antagonist, MK-801, is a key rodent pharmacological model of acute psychotic features in humans.
Drugs which induce psychosis in humans enhance MK-801 induced hyperactivity in rodents while antipsychotic drugs reduce or block the effect.
In order to determine the interactive effects of PSIL and CLZ, a murine model was used where MK-801 induced hyperactivity, was assessed, which serves as a surrogate system for psychotic symptoms in schizophrenia patients.
Toward this end PSIL and CLZ alone and in combination were evaluated for their effects on MK-801 induced hyperactivity in […].
ICR mice were administered MK-801 intra-peritoneally, at a dose of 0.1 mg/kg immediately before they were placed in an open field for one hour. 30 minutes prior to administration of MK-801, mice were pretreated as follows: • 1. PSIL at a dosage of 4.4 mg/kg; • 2. CLZ at a dosage of 1.0 mg/kg; • 3. PSIL at a dosage of 4.4 mg/kg and CLZ at a dosage of 1.0 mg/kg; • 4. D-Serine (DSR) at a dosage of 3000 mg/kg; • 5. D-cycloserine (DCS) at a dosage of 320 mg/kg; • 6. […]
Activity in the open field was monitored by an overhead camera and was recorded by a Noldus Ethovision apparatus. […] Distance moved/travelled in the open field, center duration and center frequency were evaluated in the open field arena.

Assay [2] deals with GAP43. The assay can be described thus: Western Blot of synaptic protein GAP43 in brain regions, 7 days post-administration. The assay is classed as in vivo, mice. To be noted: for GAP43 protein levels: single i.p. injection (psilocybin 4.4 mg/kg, D-Serine 3 g/kg or both), 7 days post-administration, vs saline controls (FIG. 4). The protocol:
(§1) Specifically, ICR mice were administered a single intra-peritoneal injection of psilocybin at a dosage of 4.4 mg/kg, D-Serine at a dosage of 3 g/kg, a combined psilocybin dosage of 4.4 mg/kg+D-Serine dosage of 3 g/kg and compared to control animals (administered a saline vehicle). 7 days post-administration, animals were harvested, and individual brain regions were dissected, homogenized and processed for Western Blot analysis, probing for GAP43, Synaptophysin and SV2A protein expression, using commercially available reagents (Abcam).
(§2) Animals injected with PSIL or D-SER or the combination of the two were specifically probed for changes in synaptic protein expression, for proteins that are pivotally involved in neuroplasticity of the brain, focusing on 4 key regions: the brain frontal cortex, hippocampus, amygdala and striatum.
(§3) In order to comparatively assess all the effects of individual DSER or PSIL and combined DSER and PSIL administration on each brain region, a nested analysis of variance in which the level each of the synaptic proteins was compared to controls was assessed across the four brain regions frontal cortex, hippocampus, amygdala and striatum (FIG. 6).
For orientation: Immunoblotting shows a protein as a band on a membrane.

The subject of assay [3] is SV2A. The assay can be described thus: Western Blot of synaptic protein SV2A in brain regions, 7 days post-administration. Format: in vivo, mice. The conditions noted are these: hippocampus; single i.p. injection (D-Serine 3 g/kg or with psilocybin 4.4 mg/kg); 7 days post-administration (FIG. 5). The protocol: as §1, §2, §3
Assay [4] has as its system Synaptophysin. The assay can be described thus: Western Blot of synaptic protein Synaptophysin in brain regions, 7 days post-administration. Format: in vivo, mice. The method, then: as §1, §2, §3
In assay [5] the test system is male ICR mice. In words: Head twitch response (HTR) induced by psilocybin in mice. The assay is classed as in vivo. From the text: The head twitch response (HTR) induced by serotonergic psychedelic agents such as psilocybin (PSIL) in rodents, is a characteristic behavioral effect mediated by cortical 5-HT2A receptors that is highly correlated with the psychedelic trip induced by these agents in humans.
In order to determine whether the negative effects such as HTR could be blocked in schizophrenic patients administered psilocybin (PSIL) (which ordinarily would produce “trip-induced effects”) upon further receiving clozapine (CLZ), the effect of concurrent CLZ treatment in blocking the HTR-inducing effect of PSIL in mice was examined.
Toward this end, male ICR mice (aged 8 weeks) were implanted with mini car-magnets and were administered the following treatments intraperitoneally (i.p.): • 1. CLZ at a dosage of 1 or 2 mg/kg weight; • 2. PSIL at a dosage of 4.4 mg/kg weight; • 3. CLZ at a dosage of 1 mg/kg weight and PSIL at a dosage of 4.4 mg/kg weight; • 4. CLZ at a dosage of 2 mg/kg weight and PSIL at a dosage of 4.4 mg/kg weight; and • 5. Vehicle (Saline) controls.
CLZ was administered 30 minutes before PSIL. All injection volumes were identical. HTR was assessed in up to 6 mice simultaneously over a 20-minute period using a purpose-built magnetometer and custom software. Experiments were approved by the Authority for Biological and Biomedical Models, Hebrew University
To further extend these studies, it was of interest to determine the HTR effects induced by Psilocybin when mice were pre-administered D-Serine 3000 mg/kg, as opposed to CLZ (FIG. 2A), or D-Serine 1500 mg/kg, as opposed to CLZ (FIG. 2B).

The mark [6] stands for this setting: across the four brain regions frontal cortex, hippocampus, amygdala and striatum, 7 days post-administration (FIG. 6).

For `C[C@]12N[C@H](Cc3ccccc31)c1ccccc12` [MK-801], the “distance travelled in the open field” value in assay [1] was “marked movement”.

With `N[C@H](CO)C(=O)O` [D-Serine], the “GAP43 levels, nested analysis of variance compared to controls” value in assay [2] (setting [6]) is “increase”. The GAP43 protein levels entry in assay [2] (amygdala) and in assay [2] (frontal cortex) was “significantly increased” throughout. For the same compound, in assay [3], the SV2A expression result was “increased”. Besides, the “Synaptophysin expression, nested analysis of variance compared to controls” value in assay [4] (setting [6]) is given as “increasing levels”. Moreover, the synaptophysin protein expression result in assay [4] (frontal cortex, single i.p. injection D-Serine 3 g/kg, 7 days post-administration (FIG. 5)) is “increased”. Also, the “PSIL-mediated increased HTR” value in assay [5] (D-Serine 3000 mg/kg (FIG. 2A) or 1500 mg/kg (FIG. 2B) pre-administered before Psilocybin) was “significantly reduced”. Moreover, in assay [5] (DSR alone), the HTR result is recorded as “did not affect HTR”. For the same compound, in assay [5] (lower D-serine dose with PSIL (FIG. 2C)), the “PSIL-mediated HTR over time” value is listed as “consistent over time”.

On to `N[C@@H]1CONC1=O` [DCS, D-cycloserine], for which, in assay [5] (DCS alone), the HTR result is “did not affect HTR”. Besides, the “PSIL-mediated increased HTR over time” value in assay [5] (plotted for up to 30 minutes, DCS at doses of over 320 mg/kg with PSIL (FIG. 2E)) was “rapid abrogation”.
